The subject of assay [1] is XPR1-dependent cell lines (RMGI). In words: phosphate efflux in ovarian cancer cell line (FIG. 6A). The settings on record: as compared to RBD (protein inhibitor of XPR1). It is filed as cell-based. The text has this:
(§1) FIG. 6A-FIG. 6B—IP6K inhibitors. FIG. 6A. Graph showing phosphate efflux in an ovarian cancer cell line treated with TNP or RBD_00. FIG. 6B. Graph showing cell viability in an ovarian cancer cell line treated with TNP or RBD_00 and the indicated CRISPR guide sequences.

The test system of assay [2] is ovarian cancer cell line. In words: cell viability in ovarian cancer cell line with CRISPR guide sequences (FIG. 6B). It is filed as cell-based. The following applies: high doses; specificity to XPR1-dependent cell lines.
Text: as §1

As for `O=[N+]([O-])c1ccc(CNc2nc(NCc3cccc(C(F)(F)F)c3)nc3nc[nH]c23)cc1` [TNP, N2-(m-(trifluoromethyl)benzyl) N6-(p-nitrobenzyl)purine], the phosphate efflux result in assay [1] is on record as “did not observe a decrease in phosphate efflux”. Moreover, in assay [2], the proliferation effects entry is reported as “Proliferation effects were observed at high doses of TNP, but the effects were not specific to XPR1-dependent cell lines”.

For the origin of these results see US20250127768A1, “THERAPEUTIC TARGETING OF INOSITOL PYROPHOSPHATE SYNTHESIS IN CANCER” (The Broad Institute, Inc., priority 2022, published 2025).
